Reference: ChEMBL document CHEMBL3639183, “Anellated pyridine compounds” (2013)

Assays:
Type in all cases: cell-based
D(3) dopamine receptor = D(3) dopamine receptor (Homo sapiens, UniProt P35462); test: (§1) Radioligand Binding Assay: The ability of the compounds to bind to the 5-HT2A, D3 and D2 receptors was determined using radioligand binding to cloned receptors selectively expressed in HEK-293 EBNA cells.
D(2) dopamine receptor = D(2) dopamine receptor (Homo sapiens, UniProt P14416); test: as §1
[1] = biological target: 5-hydroxytryptamine receptor 2A (Homo sapiens, UniProt P28223); test: as §1
Sequence of 5-hydroxytryptamine receptor 2A (P28223 whole entry): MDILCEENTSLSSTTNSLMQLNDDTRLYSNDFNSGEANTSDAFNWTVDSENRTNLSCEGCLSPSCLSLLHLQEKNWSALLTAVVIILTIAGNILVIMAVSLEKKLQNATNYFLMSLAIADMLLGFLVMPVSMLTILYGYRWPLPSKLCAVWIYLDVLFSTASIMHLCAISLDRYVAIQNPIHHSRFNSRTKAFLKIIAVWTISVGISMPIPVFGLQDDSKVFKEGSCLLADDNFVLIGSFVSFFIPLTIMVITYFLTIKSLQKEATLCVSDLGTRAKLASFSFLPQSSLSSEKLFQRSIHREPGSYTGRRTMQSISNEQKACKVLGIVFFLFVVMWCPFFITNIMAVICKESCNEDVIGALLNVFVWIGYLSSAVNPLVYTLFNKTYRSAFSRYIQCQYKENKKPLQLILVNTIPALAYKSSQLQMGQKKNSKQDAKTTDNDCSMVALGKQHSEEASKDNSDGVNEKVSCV

Sequence of D(3) dopamine receptor (P35462 whole entry): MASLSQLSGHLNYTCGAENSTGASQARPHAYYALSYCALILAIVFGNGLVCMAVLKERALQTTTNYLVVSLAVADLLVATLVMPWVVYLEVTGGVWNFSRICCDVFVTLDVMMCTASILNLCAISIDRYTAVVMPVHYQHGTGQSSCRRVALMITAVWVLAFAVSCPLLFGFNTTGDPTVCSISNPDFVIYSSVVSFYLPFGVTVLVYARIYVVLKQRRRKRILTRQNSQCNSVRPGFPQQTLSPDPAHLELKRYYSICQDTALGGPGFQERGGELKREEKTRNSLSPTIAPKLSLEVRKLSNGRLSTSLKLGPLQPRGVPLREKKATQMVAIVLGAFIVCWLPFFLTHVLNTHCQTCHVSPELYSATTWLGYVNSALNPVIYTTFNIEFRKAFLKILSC
Sequence of D(2) dopamine receptor (P14416 whole entry): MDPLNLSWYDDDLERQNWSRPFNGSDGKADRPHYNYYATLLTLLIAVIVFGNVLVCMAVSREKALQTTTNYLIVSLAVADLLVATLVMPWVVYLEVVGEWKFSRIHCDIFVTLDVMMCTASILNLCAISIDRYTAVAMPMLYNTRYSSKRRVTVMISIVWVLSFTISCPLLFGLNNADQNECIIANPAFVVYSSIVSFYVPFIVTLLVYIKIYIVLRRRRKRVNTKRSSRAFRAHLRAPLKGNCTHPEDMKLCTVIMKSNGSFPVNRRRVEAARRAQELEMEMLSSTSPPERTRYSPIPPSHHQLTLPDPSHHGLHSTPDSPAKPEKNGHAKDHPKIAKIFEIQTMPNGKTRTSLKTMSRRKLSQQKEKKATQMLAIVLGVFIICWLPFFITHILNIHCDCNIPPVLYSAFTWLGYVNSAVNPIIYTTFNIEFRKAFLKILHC

CC(C)(O)C(=O)N[C@H]1CC[C@H](CCN2CCN(c3nccc4c3CCO4)CC2)CC1
Ki (D(3) dopamine receptor): 195 nM | Ki (D(2) dopamine receptor): 1260 nM | Ki [1]: 7.82 nM
